Source: patent US12281122B1, “PI3K inhibitors” (Cogent Biosciences, Inc., priority 2023, dated 2025)
pIC50: −log10 of the molar value.

Assays:
[1] = test system: T47D (PI3Kα-H1047R) cell line; assay: HTRF phospho-AKT(S473) cell assay in T47D cells; assay type: cell-based, human; settings: Homo sapiens; T47D (PI3Kα-H1047R) cells, HTRF phospho-AKT(S473), 2 hours compound incubation
Outline: (§1)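 T47D (PI3Kα-H1047R; RPMI, 10% FBS, insulin) and SKBR3 (wild-type PI3Kα; McCoy's 5A, 10% FBS) cells treated 2 h at 37 °C with 12-point 1:3 dilutions, top 5 μM and 10 μM respectively, ≤0.5% DMSO. SKBR3 stimulated with 70 ng/ml PDGF-BB for the last 15 min; lysate pAKT(S473) by HTRF, IC50 from curves.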

[2] = test system: SKBR3 (PI3Kα-Wild Type) cell line; assay: HTRF phospho-AKT(S473) cell assay in SKBR3 cells; assay type: cell-based, human; settings: Homo sapiens, SK-BR-3; SKBR3 (PI3Kα-Wild Type) cells, HTRF phospho-AKT(S473), 2 hours compound incubation, PDGF-BB stimulated
Outline: as §1

PI3Kα = PI3Kα (Homo sapiens, UniProt P42336); assay: PI3Kα enzyme assay (Transcreener ADP2 TR-FRET Red Assay); assay type: biochemical; settings: purified recombinant full-length protein; 2 hours pre-incubation with compound; read-out: PI3Kα WT IC50
Outline: (§2)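 Purified recombinant full-length enzymes pre-incubated 2 h at room temperature with compounds (11-point 1:3 dilutions, typically 50,000–0.85 nM), then started with ATP/PI(4,5)P2 diC8 and run 60 min at room temperature in 40 mM HEPES pH 7.5, 20 mM NaCl, 25 mM MgCl2, 0.01% Triton X-100. ADP detected by TR-FRET 665/615 ratio; IC50 from four-parameter fit of percent of control.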

PI3Kα H1047R = PI3Kα H1047R (Homo sapiens, UniProt P42336, H1047R); assay: PI3Kα H1047R enzyme assay (Transcreener ADP2 TR-FRET Red Assay); assay type: biochemical; settings: purified recombinant full-length protein; 2 hours pre-incubation with compound
Outline: as §2

PI3Kα H1047R, sequence (P42336 whole entry H1047R): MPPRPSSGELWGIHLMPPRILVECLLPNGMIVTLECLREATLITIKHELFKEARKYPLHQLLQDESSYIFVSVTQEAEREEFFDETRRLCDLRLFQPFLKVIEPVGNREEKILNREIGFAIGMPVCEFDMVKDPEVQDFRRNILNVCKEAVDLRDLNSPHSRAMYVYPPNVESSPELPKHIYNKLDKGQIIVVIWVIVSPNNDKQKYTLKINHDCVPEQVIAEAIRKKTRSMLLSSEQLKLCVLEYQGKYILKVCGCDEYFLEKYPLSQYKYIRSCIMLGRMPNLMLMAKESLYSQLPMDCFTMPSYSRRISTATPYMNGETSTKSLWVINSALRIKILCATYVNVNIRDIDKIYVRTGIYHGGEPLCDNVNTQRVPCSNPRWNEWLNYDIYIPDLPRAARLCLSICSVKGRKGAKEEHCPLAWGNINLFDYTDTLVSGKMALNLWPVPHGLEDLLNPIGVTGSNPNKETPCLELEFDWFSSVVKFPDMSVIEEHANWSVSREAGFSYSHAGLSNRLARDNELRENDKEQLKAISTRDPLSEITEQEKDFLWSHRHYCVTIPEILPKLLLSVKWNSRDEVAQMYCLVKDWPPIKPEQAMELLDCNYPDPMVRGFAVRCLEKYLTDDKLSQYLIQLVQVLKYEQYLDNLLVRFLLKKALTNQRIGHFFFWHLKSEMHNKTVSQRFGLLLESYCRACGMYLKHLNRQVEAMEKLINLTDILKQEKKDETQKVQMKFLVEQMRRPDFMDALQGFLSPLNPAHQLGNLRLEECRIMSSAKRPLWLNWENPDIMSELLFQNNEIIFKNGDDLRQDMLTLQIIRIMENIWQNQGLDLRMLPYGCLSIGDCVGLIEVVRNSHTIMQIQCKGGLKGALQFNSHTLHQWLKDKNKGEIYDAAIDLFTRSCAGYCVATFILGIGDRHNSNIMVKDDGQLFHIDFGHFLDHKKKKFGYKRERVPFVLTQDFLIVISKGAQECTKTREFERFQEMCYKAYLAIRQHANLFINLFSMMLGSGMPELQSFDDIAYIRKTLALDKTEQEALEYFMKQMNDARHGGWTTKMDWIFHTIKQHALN
PI3Kα H1047R, sequence (P27986 2-724 partner): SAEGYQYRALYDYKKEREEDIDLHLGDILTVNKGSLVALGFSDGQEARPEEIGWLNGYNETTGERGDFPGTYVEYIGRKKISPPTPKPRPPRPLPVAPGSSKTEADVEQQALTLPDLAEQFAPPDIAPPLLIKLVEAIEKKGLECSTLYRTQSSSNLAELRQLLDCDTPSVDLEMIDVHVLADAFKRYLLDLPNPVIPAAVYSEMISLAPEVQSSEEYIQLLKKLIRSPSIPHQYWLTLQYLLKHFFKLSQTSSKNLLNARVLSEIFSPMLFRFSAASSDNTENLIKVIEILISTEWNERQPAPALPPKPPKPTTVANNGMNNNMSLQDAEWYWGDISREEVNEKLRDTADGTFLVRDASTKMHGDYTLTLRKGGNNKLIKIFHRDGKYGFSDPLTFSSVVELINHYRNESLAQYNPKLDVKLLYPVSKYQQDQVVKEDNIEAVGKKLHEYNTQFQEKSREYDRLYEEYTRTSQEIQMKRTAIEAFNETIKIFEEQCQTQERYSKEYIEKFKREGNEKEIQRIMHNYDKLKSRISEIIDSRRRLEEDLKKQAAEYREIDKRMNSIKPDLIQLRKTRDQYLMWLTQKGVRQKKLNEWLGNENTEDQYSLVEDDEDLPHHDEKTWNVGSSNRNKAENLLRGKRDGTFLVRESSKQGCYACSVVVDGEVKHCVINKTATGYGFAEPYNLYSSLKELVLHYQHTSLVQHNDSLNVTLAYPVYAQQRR
PI3Kα, sequence (P42336 whole entry): as the sequence (P42336 whole entry H1047R) above, with R1047H counted along it
PI3Kα, sequence (P27986 2-724 partner): as the sequence (P27986 2-724 partner) above

| Compound | pIC50 [1] | pIC50 [2] | pIC50 (PI3Kα) | pIC50 (PI3Kα H1047R) |
| --- | --- | --- | --- | --- |
| Cc1cc([C@@H](C)Nc2ccc(Cl)nc2C(=O)NS(C)(=O)=O)c2nc(N3CCOC[C@H]3C)n(C)c(=O)c2c1 [Compound 55, 6-chloro-3-(((R)-1-(3,6-dimethyl-2-((R)-3-methylmorpholino)-4-oxo-3,4-dihydroquinazolin-8-yl)ethyl)amino)-N-(methylsulfonyl) picolinamide] | > 6.60 | 5.30 to 6.00 | ≤ 6.00 | 6.00 to 6.30 |
| Cc1cc([C@@H](C)Nc2ccc(Cl)nc2C(=O)NS(C)(=O)=O)c2nc(OCc3cccnc3)n(C)c(=O)c2c1 [Compound 56, (R)-6-chloro-3-((1-(3,6-dimethyl-4-oxo-2-(pyridin-3-ylmethoxy)-3,4-dihydroquinazolin-8-yl)ethyl)amino)-N-(methylsulfonyl) picolinamide] | 6.30 to 6.60 | 5.30 to 6.00 | ≤ 6.00 | ≤ 6.00 |
| Cc1cc([C@@H](C)Nc2ccc(Cl)nc2C(=O)NS(C)(=O)=O)c2nc(N3CCC(F)(F)CC3)n(C)c(=O)c2c1 [Compound 57, (R)-6-chloro-3-((1-(2-(4,4-difluoropiperidin-1-yl)-3,6-dimethyl-4-oxo-3,4-dihydroquinazolin-8-yl)ethyl)amino)-N-(methylsulfonyl) picolinamide] | 6.00 to 6.30 | 5.30 to 6.00 | ≤ 6.00 | ≤ 6.00 |
| Cc1cc([C@@H](C)Nc2cccnc2C(=O)NS(C)(=O)=O)c2nc(N3Cc4ccc(F)cc4C3)n(C)c(=O)c2c1 [Compound 58, (R)-3-((1-(2-(5-fluoroisoindolin-2-yl)-3,6-dimethyl-4-oxo-3,4-dihydroquinazolin-8-yl)ethyl)amino)-N-(methylsulfonyl) picolinamide] | 6.30 to 6.60 | 5.30 to 6.00 | ≤ 6.00 | ≤ 6.00 |
| C[C@@H](Nc1cccnc1C(=O)NS(C)(=O)=O)c1cccc2c(=O)n(C)c(N3Cc4ccc(F)cc4C3)nc12 [Compound 59, (R)-3-((1-(2-(5-fluoroisoindolin-2-yl)-3-methyl-4-oxo-3,4-dihydroquinazolin-8-yl)ethyl)amino)-N-(methylsulfonyl) picolinamide] | 5.30 to 6.00 | ≤ 5.30 | ≤ 6.00 | ≤ 6.00 |
| C[C@@H](Nc1cccnc1C(=O)NS(C)(=O)=O)c1cc(F)cc2c(=O)n(C)c(N3Cc4ccc(F)cc4C3)nc12 [Compound 60, (R)-3-((1-(6-fluoro-2-(5-fluoro-isoindolin-2-yl)-3-methyl-4-oxo-3,4-dihydroquinazolin-8-yl)ethyl)amino)-N-(methylsulfonyl) picolinamide] | 5.30 to 6.00 | 5.30 to 6.00 | ≤ 6.00 | ≤ 6.00 |
| Cc1ccc(N[C@H](C)c2cc(F)cc3c(=O)n(C)c(N4Cc5ccc(F)cc5C4)nc23)c(C(=O)NS(C)(=O)=O)n1 [Compound 61, (R)-3-((1-(6-fluoro-2-(5-fluoroisoindolin-2-yl)-3-methyl-4-oxo-3,4-dihydro-quinazolin-8-yl)ethyl)amino)-6-methyl-N-(methylsulfonyl) picolinamide] | 5.30 to 6.00 | ≤ 5.30 | ≤ 6.00 | ≤ 6.00 |
| Cc1cc([C@@H](C)Nc2ccc(F)cc2C(=O)NS(C)(=O)=O)c2nc(N3CCC(F)(F)CC3)n(C)c(=O)c2c1 [Compound 62, (R)-2-((1-(2-(4,4-difluoropiperidin-1-yl)-3,6-dimethyl-4-oxo-3,4-dihydroquinazolin-8-yl)ethyl)amino)-5-fluoro-N-(methyl-sulfonyl)benzamide] | 5.30 to 6.00 | 5.30 to 6.00 | ≤ 6.00 | > 7.00 |
| Cc1cc([C@@H](C)Nc2ccc(F)cc2C(=O)NS(C)(=O)=O)c2nc(N3Cc4ccc(F)cc4C3)n(C)c(=O)c2c1 [Compound 63, (R)-5-fluoro-2-((1-(2-(5-fluoro-isoindolin-2-yl)-3,6-dimethyl-4-oxo-3,4-dihydroquinazolin-8-yl)ethyl)amino)-N-(methylsulfonyl) benzamide] | 5.30 to 6.00 | 5.30 to 6.00 | ≤ 6.00 | ≤ 6.00 |
| Cc1cc([C@@H](C)Nc2ccc(Cl)cc2C(=O)NS(C)(=O)=O)c2nc(N3Cc4ccc(F)cc4C3)n(C)c(=O)c2c1 [Compound 64, (R)-5-chloro-2-((1-(2-(5-fluoro-isoindolin-2-yl)-3,6-dimethyl-4-oxo-3,4-dihydroquinazolin-8-yl)ethyl)amino)-N-(methylsulfonyl) benzamide] | 5.30 to 6.00 | 5.30 to 6.00 | ≤ 6.00 | ≤ 6.00 |
| COc1ccc(N[C@H](C)c2cc(C)cc3c(=O)n(C)c(N4Cc5ccc(F)cc5C4)nc23)c(C(=O)NS(C)(=O)=O)n1 [Compound 65, (R)-3-((1-(2-(5-fluoroisoindolin-2-yl)-3,6-dimethyl-4-oxo-3,4-dihydro-quinazolin-8-yl)ethyl)amino)-6-methoxy-N-(methylsulfonyl) picolinamide] | 6.00 to 6.30 | 5.30 to 6.00 | ≤ 6.00 | ≤ 6.00 |
| C[C@@H](Nc1ccc(Cl)nc1C(=O)NS(C)(=O)=O)c1cc(F)cc2c(=O)n(C)c(N3Cc4ccc(F)cc4C3)nc12 [Compound 66, (R)-6-chloro-3-((1-(6-fluoro-2-(5-fluoroisoindolin-2-yl)-3-methyl-4-oxo-3,4-dihydroquinazolin-8-yl)ethyl)amino)-N-(methylsulfonyl) picolinamide] | 6.30 to 6.60 | 5.30 to 6.00 | > 7.00 | 6.60 to 7.00 |

Other lines, results leading:

| pIC50 [1] | pIC50 [2] | pIC50 (PI3Kα) | pIC50 (PI3Kα H1047R) | Compound |
| --- | --- | --- | --- | --- |
| 6.00 to 6.30 | ≤ 5.30 | ≤ 6.00 | ≤ 6.00 | Cc1cc([C@@H](C)Nc2ccc(Cl)nc2C(=O)NS(=O)(=O)N(C)C)c2nc(N3Cc4ccc(F)cc4C3)n(C)c(=O)c2c1 [Compound 67, (R)-6-chloro-N-(N,N-dimethyl-sulfamoyl)-3-((1-(2-(5-fluoro-isoindolin-2-yl)-3,6-dimethyl-4-oxo-3,4-dihydroquinazolin-8-yl)ethyl)amino)picolinamide] |
| 5.30 to 6.00 | ≤ 5.30 | ≤ 6.00 | ≤ 6.00 | Cc1cc([C@@H](C)Nc2cc(F)cnc2C(=O)NS(C)(=O)=O)c2nc(N3Cc4ccc(F)cc4C3)n(C)c(=O)c2c1 [Compound 68, (R)-5-fluoro-3-((1-(2-(5-fluoro-isoindolin-2-yl)-3,6-dimethyl-4-oxo-3,4-dihydroquinazolin-8-yl)ethyl)amino)-N-(methylsulfonyl) picolinamide] |
| 5.30 to 6.00 | ≤ 5.30 | ≤ 6.00 | ≤ 6.00 | Cc1cc([C@@H](C)Nc2cc(C)c(F)nc2C(=O)NS(C)(=O)=O)c2nc(N3Cc4ccc(F)cc4C3)n(C)c(=O)c2c1 [Compound 69, (R)-6-fluoro-3-((1-(2-(5-fluoro-isoindolin-2-yl)-3,6-dimethyl-4-oxo-3,4-dihydroquinazolin-8-yl)ethyl)amino)-5-methyl-N-(methylsulfonyl)picolinamide] |
| 5.30 to 6.00 | ≤ 5.30 | ≤ 6.00 | 6.30 to 6.60 | CNC(=O)NS(=O)(=O)c1nc(Cl)ccc1N[C@H](C)c1cc(C)cc2c(=O)n(C)c(N3Cc4ccc(F)cc4C3)nc12 [Compound 70, (R)-6-chloro-3-((1-(2-(5-fluoro-isoindolin-2-yl)-3,6-dimethyl-4-oxo-3,4-dihydroquinazolin-8-yl)ethyl)amino)-N-(methylcarb-amoyl)pyridine-2-sulfonamide] |
| 5.30 to 6.00 | ≤ 5.30 | ≤ 6.00 | ≤ 6.00 | Cc1cc([C@@H](C)Nc2ccc(Cl)nc2S(=O)(=O)NC(=O)N(C)C)c2nc(N3Cc4ccc(F)cc4C3)n(C)c(=O)c2c1 [Compound 71, (R)-6-chloro-N-(dimethylcarb-amoyl)-3-((1-(2-(5-fluoroisoindolin-2-yl)-3,6-dimethyl-4-oxo-3,4-dihydroquinazolin-8-yl)ethyl)amino)pyridine-2-sulfonamide] |
| 6.30 to 6.60 | 5.30 to 6.00 | ≤ 6.00 | 6.60 to 7.00 | Cc1cc2c(=O)n(C)c(N3Cc4ccc(F)cc4C3)nc2c([C@@H](C)Nc2ccc(Cl)nc2C(=O)NS(C)(=O)=O)n1 [Compound 72, (R)-6-chloro-3-((1-(2-(5-fluoroisoindolin-2-yl)-3,6-dimethyl-4-oxo-3,4-dihydro-pyrido[3,4-d]pyrimidin-8-yl)ethyl)amino)-N-(methylsulfonyl)picolinamide] |
| > 6.60 | 5.30 to 6.00 | ≤ 6.00 | 6.30 to 6.60 | CNS(=O)(=O)NC(=O)c1nc(Cl)ccc1N[C@H](C)c1cc(C)cc2c(=O)n(C)c(N3Cc4ccc(F)cc4C3)nc12 [Compound 73, (R)-6-chloro-3-((1-(2-(5-fluoroisoindolin-2-yl)-3,6-dimethyl-4-oxo-3,4-dihydroquinazolin-8-yl)ethyl)amino)-N-(N-methyl-sulfamoyl)picolinamide] |
| 6.30 to 6.60 | ≤ 5.30 | ≤ 6.00 | 6.60 to 7.00 | CC(=O)NS(=O)(=O)c1nc(Cl)ccc1N[C@H](C)c1cc(C)cc2c(=O)n(C)c(N3Cc4ccc(F)cc4C3)nc12 [Compound 74, (R)—N-((6-chloro-3-((1-(2-(5-fluoroisoindolin-2-yl)-3,6-dimethyl-4-oxo-3,4-dihydroquinazolin-8-yl)ethyl)amino)pyridin-2-yl)sulfonyl)acetamide] |
